Test systems include 786-0 renal; DU-145 prostate; HOP-62 NSCLC; K-562 leukemia; NCI-H522 lung; OVCAR-8 ovarian; SF-268 CNS; SF-539 CNS; SNB-19 CNS; UO-31 renal.
What all share (test): NCI anticancer screen, dose series, 48 h

Molecules are shown by their SMILES.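 96-well plates; 48 h exposure; 5 concentrations. Endpoints by linear interpolation between flanking doses. Not reached: highest tested concentration assigned. At the GI50, growth is halved. Definition used: TGI = concentration required for complete inhibition of growth.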

On to `CCOC(=O)/C(=C\c1ccc2ccccc2c1)P(=O)(OCC)OCC`, for which the GI50 was 2.26 µM in the assay with 786-0 renal; 2.63 µM in the assay with DU-145 prostate; 2.61 µM in the assay on HOP-62 NSCLC; 2.73 µM in the assay with K-562 leukemia; 1.52 µM in the assay on NCI-H522 lung; 3.26 µM in the assay with OVCAR-8 ovarian. In addition, the GI50 in the assay with SF-268 CNS was 3.28 µM; in the assay with SF-539 CNS it was 2.29 µM; with SNB-19 CNS, 4.45 µM; with UO-31 renal it was 1.72 µM. The TGI is 5.61 µM in the assay on 786-0 renal; 9.32 µM with DU-145 prostate; 7.24 µM in the assay on HOP-62 NSCLC; 50.8 µM in the assay with K-562 leukemia; 3.35 µM with NCI-H522 lung; 13.2 µM in the assay on OVCAR-8 ovarian. For the same compound, the TGI was found to be 14.3 µM in the assay with SF-268 CNS, 5.17 µM in the assay with SF-539 CNS, 18.6 µM in the assay with SNB-19 CNS and 4.4 µM in the assay on UO-31 renal.

Turning to `COc1cccc(-c2nc3sccn3c2-c2ccnc(NCCCNS(=O)(=O)c3ccccc3)c2)c1`, the GI50 is 6.03 µM in the assay with 786-0 renal; 3.14 µM with DU-145 prostate; 3.43 µM in the assay on HOP-62 NSCLC; 2.57 µM with K-562 leukemia; 2.34 µM with NCI-H522 lung; 2.99 µM in the assay with OVCAR-8 ovarian. For the same compound, the GI50 is 3.46 µM in the assay with SF-268 CNS, 5.43 µM in the assay with SF-539 CNS, 4.92 µM in the assay on SNB-19 CNS and 2.07 µM with UO-31 renal. In addition, the TGI in the assay with 786-0 renal is over 100 µM; with DU-145 prostate it was over 100 µM; in the assay with HOP-62 NSCLC, over 100 µM; with K-562 leukemia it was over 100 µM; in the assay on NCI-H522 lung, 15 µM; in the assay on OVCAR-8 ovarian, over 100 µM. Moreover, the TGI with SF-268 CNS, with SF-539 CNS, in the assay with SNB-19 CNS and in the assay on UO-31 renal was over 100 µM throughout.

For `O=C(O)c1ccccc1NCn1c(=S)sc2ccccc21`, the TGI in the assay with 786-0 renal is over 100 µM; in the assay on DU-145 prostate it was over 100 µM; in the assay on HOP-62 NSCLC, over 100 µM; in the assay with K-562 leukemia, over 100 µM; in the assay with NCI-H522 lung it was 78.3 µM; in the assay with OVCAR-8 ovarian, over 100 µM. In addition, the TGI is over 100 µM in the assay on SF-268 CNS, 48.9 µM in the assay with SF-539 CNS, over 100 µM with SNB-19 CNS and over 100 µM in the assay on UO-31 renal.

Regarding `O=c1[nH]cnc2n[nH]nc12`, the TGI in the assay on 786-0 renal is over 100 µM; with DU-145 prostate it was over 100 µM; with HOP-62 NSCLC, over 100 µM; in the assay with K-562 leukemia it was over 100 µM; in the assay on NCI-H522 lung, 53.3 µM; in the assay with OVCAR-8 ovarian, over 100 µM. Further, the TGI in the assay on SF-268 CNS was over 94.3 µM; with SF-539 CNS, 23.9 µM; in the assay with SNB-19 CNS it was over 100 µM; in the assay with UO-31 renal it was over 100 µM. Further, the GI50 with DU-145 prostate was 2.89 µM.

With `C#C[C@]1(O)CC[C@H]2[C@@H]3CC=C4c5nc(N)sc5CC[C@]4(C)[C@H]3CC[C@@]21C`, the GI50 with 786-0 renal is 2.06 µM; in the assay on DU-145 prostate, 5.19 µM; in the assay with HOP-62 NSCLC, 3.43 µM; in the assay on K-562 leukemia, 2.63 µM; with NCI-H522 lung it was 2.52 µM; in the assay on OVCAR-8 ovarian, 9.12 µM. Moreover, the GI50 in the assay on SF-268 CNS is 3.57 µM; in the assay with SF-539 CNS, 1.58 µM; with SNB-19 CNS, 6.2 µM; in the assay with UO-31 renal it was 2.68 µM. In addition, the TGI in the assay on 786-0 renal worked out at 4.41 µM; in the assay on DU-145 prostate, 20.8 µM; with HOP-62 NSCLC, 14.7 µM; in the assay with K-562 leukemia, 74.5 µM; with NCI-H522 lung, 7.94 µM; in the assay on OVCAR-8 ovarian, 56.1 µM. Also, the TGI with SF-268 CNS was 16.5 µM; in the assay with SF-539 CNS, 3.56 µM; with SNB-19 CNS, 31.1 µM; in the assay on UO-31 renal it was 10.5 µM.

With `CN1CC[C@H](c2c(O)cc(O)c3c(=O)cc(-c4ccccc4Cl)oc23)[C@H](O)C1`, the GI50 in the assay with 786-0 renal was 0.0717 µM; with DU-145 prostate it was 0.075 µM; with HOP-62 NSCLC it was 0.0515 µM; in the assay with K-562 leukemia, 0.225 µM; with NCI-H522 lung it was 0.102 µM; with OVCAR-8 ovarian, 0.0723 µM. Further, the GI50 in the assay with SF-268 CNS is 0.0647 µM; in the assay on SF-539 CNS, 0.139 µM; in the assay with SNB-19 CNS, 0.0647 µM; in the assay with UO-31 renal, 0.0662 µM. Also, the TGI was over 10 µM in the assay on 786-0 renal; over 10 µM in the assay on DU-145 prostate; over 2.62 µM in the assay on HOP-62 NSCLC; over 10 µM in the assay on K-562 leukemia; 0.847 µM in the assay with NCI-H522 lung; over 10 µM in the assay with OVCAR-8 ovarian. For the same compound, the TGI in the assay on SF-539 CNS was 0.542 µM; in the assay with SNB-19 CNS, over 10 µM; with UO-31 renal, over 10 µM.

In the case of `Cn1c(=O)c2c(nc(N/N=C/c3ccccc3C(=O)O)n2C)n(C)c1=O`, the TGI with 786-0 renal, with DU-145 prostate, in the assay with HOP-62 NSCLC, in the assay on K-562 leukemia, with NCI-H522 lung and in the assay with OVCAR-8 ovarian was over 100 µM each time. For the same compound, the TGI in the assay on SF-268 CNS, in the assay on SF-539 CNS, with SNB-19 CNS and in the assay on UO-31 renal was over 100 µM each time.

As to `NC(=O)/C(=C/n1cnc(-c2cc(C(F)(F)F)cc(C(F)(F)F)c2)n1)c1cncnc1`, the GI50 was 0.412 µM with 786-0 renal; 0.625 µM in the assay on DU-145 prostate; 1.06 µM in the assay with HOP-62 NSCLC; 0.144 µM in the assay on K-562 leukemia; 0.331 µM in the assay on NCI-H522 lung; 0.329 µM in the assay with OVCAR-8 ovarian. Further, the GI50 was 0.516 µM in the assay on SF-268 CNS, 0.0806 µM with SF-539 CNS, 0.654 µM in the assay with SNB-19 CNS and 0.426 µM with UO-31 renal. Further, the TGI with 786-0 renal was determined as 11.4 µM; in the assay with DU-145 prostate, 12.2 µM; in the assay on HOP-62 NSCLC, 17.2 µM; in the assay on K-562 leukemia it was 38.7 µM; with NCI-H522 lung, 4.33 µM; with OVCAR-8 ovarian, 18.2 µM. Besides, the TGI was 11.9 µM in the assay with SF-268 CNS, 1.45 µM in the assay with SF-539 CNS, 15 µM with SNB-19 CNS and 12.8 µM in the assay on UO-31 renal.

In the case of `CS(=O)(=O)Nc1cc(-c2ccc3ncnc(Nc4cccc(Cl)c4)c3c2)cnc1Cl`, the GI50 in the assay with 786-0 renal is 0.457 µM; in the assay on DU-145 prostate it was 0.455 µM; in the assay on HOP-62 NSCLC, 0.22 µM; in the assay with K-562 leukemia, 1.36 µM; with NCI-H522 lung it was 0.391 µM; in the assay with OVCAR-8 ovarian it was 1.24 µM. Also, the GI50 with SF-268 CNS is 0.337 µM; in the assay on SF-539 CNS it was 0.439 µM; in the assay with SNB-19 CNS, 0.717 µM; in the assay on UO-31 renal, 0.105 µM. The TGI in the assay on 786-0 renal stood at 7.01 µM; in the assay on DU-145 prostate, 10.3 µM; in the assay on HOP-62 NSCLC, 5.29 µM; in the assay on K-562 leukemia, 59.8 µM; in the assay with NCI-H522 lung, 6.86 µM; in the assay with OVCAR-8 ovarian, 30.3 µM. The TGI in the assay on SF-268 CNS was 4.71 µM; in the assay on SF-539 CNS it was 3.73 µM; with SNB-19 CNS it was 5.05 µM; in the assay with UO-31 renal, 1.86 µM.
